Measurements reported in US7256215B2, “Crystals of 5-hydroxycarbamimidoyl-2-hydroxybenzenesulfonamide derivative” (Kissei Pharmaceutical Co., Ltd., priority 2002, dated 2007).
Read-outs that look alike come from different tables or passages of the source.

Assays:
[1] = Storage stability test (residual rate by HPLC); format: physicochemical; conditions: hydrochloride; for Residual Rate (%): storage at 40° C./90% relative humidity for two months, HPLC; for Storage stability (in words): stored for a long period
Method: (Storage Stability Test) Stability test was carried out under a storage condition of 40° C./90% relative humidity for two months for test substances. The residual rates of test substances were determined by HPLC according to the following conditions. HPLC Condition: • Detection wavelength; 225 nm • Column; CAPCELL PAK C18, MG 5 μm, 3.0 mm I.D.×250 mm • Column temperature; 35° C. • Mobile phase; • 0.02 mol/L phosphate buffer (pH 6.0): acetonitrile mixed solvent • 0→20 min; 42:58 • 20→40 min; 42:58→70:30 • 40→45 min; 70:30 • Flow rate; 0.5 mL/min

[2] = Saturated water solubility; format: physicochemical; conditions: for solubility: thermodynamic from solid, water
Method: (Saturated Water Solubility) Approximately 40 mg of test substances is placed in a vessel, and approximately 15 mL of water is added thereto to suspend. The suspensions are warmed at 37° C. with stirring, and approximately 1 mL of aliquots is collected with time. Each of aliquots is filtered through a 0.45 μm filter. Thereafter, 500 μL is taken accurately from the filtrate, and 500 μL of a mixed solvent of water/acetonitrile (1/1) is added thereto to prepare a test solution. Five μL of the test solution is analyzed by a high performance liquid chromatography method according to the following conditions. Among water solubilities at each point of test solutions, the highest concentration is estimated as a saturated water solubility. HPLC Condition: • Detection wavelength; 225 nm • Column; Inertsil ODS-3, 5 μm, 4.6 mm I.D.×250 mm • Column temperature; 30° C. • Mobile phase; • 0.02 mol/L phosphate buffer (pH 3.0): acetonitrile mixed solvent • 0→30 min; 42:58 • Flow rate; […] • Measurement time; 30 min

[3] = system: prothrombin time (PT); test: Prothrombin time (PT) in plasma of orally dosed rats; format: in vivo, Male Wistar rats; conditions: PT after administration / before administration; rat plasma, oral, 6.0 mg/mL suspension, 5.0 mL/kg, 30 minutes
Method: (Measurement of Activated Blood Coagulation Factor X Inhibitory Activity and Prothrombin Time (PT)) Male Wistar rats aged 6-9 weeks (SLC) fasted overnight were used. Test substances were suspended in 0.5% methylcellulose solution at the concentration of 6.0 mg/mL. Then 5.0 mL/kg of those was orally administrated into the rats. Then, 30 minutes before and after the administration of the test substances, citrated (1:10 dilution, 3.13% sodium citrate) bloods were collected from the jugular vein. Plasma samples were obtained by centrifugation. Effects of test substances on activated blood coagulation factor X and prothrombin time (PT) were investigated using the plasma samples according to the following procedures. 2) Prothrombin Time (PT). Fifty μL of plasma was put in the process tube and then incubated at 37° C. One minute later, 100 mu L of plasma PT reagent (Boehringer Mannheim) prewarmed at 37° C. was added into the mixture. PT was measured with a coagulometer (ST4, Boehringer Mannheim). The ratio of PT at each time point after administration of the test substance to that of before administration was used as the index of anticoagulation activity.

[4] = Oral bioavailability (statement, no method given); format: in vivo
[5] = Storage under ordinary conditions, retention of crystalline form; format: physicochemical; conditions: 25° C./60% relative humidity, long period
[6] = target: T1, activated blood coagulation factor X (Homo sapiens, UniProt P00742); test: Activated blood coagulation factor X inhibitory activity in plasma of orally dosed rats; format: in vivo, Male Wistar rats; parameters: purchased Calbiochem; conditions: rat plasma 30 minutes after oral administration; 6.0 mg/mL suspension in 0.5% methylcellulose, 5.0 mL/kg
Method: (Measurement of Activated Blood Coagulation Factor X Inhibitory Activity and Prothrombin Time (PT))
Male Wistar rats aged 6-9 weeks (SLC) fasted overnight were used. Test substances were suspended in 0.5% methylcellulose solution at the concentration of 6.0 mg/mL. Then 5.0 mL/kg of those was orally administrated into the rats. Then, 30 minutes before and after the administration of the test substances, citrated (1:10 dilution, 3.13% sodium citrate) bloods were collected from the jugular vein. Plasma samples were obtained by centrifugation. Effects of test substances on activated blood coagulation factor X and prothrombin time (PT) were investigated using the plasma samples according to the following procedures.
1) Activated Blood Coagulation Factor X Inhibitory Activity
2.5 μL of plasma sample, 200 μL of 100 mM tris-200 mM NaCl buffer (pH 8.4) and 10 μL of 0.06 U/mL human activated blood coagulation factor X (Calbiochem) in gelatin-glycine buffer were poured into 96 well microplate. […] The reaction was terminated with the addition of 50 μL of 60% acetic acid and absorbance (405 nm) was measured by a microplate reader (SPECTRAmax250, Molecular Devices). […] The inhibitory % of plasma sample was calculated from absorbance of the control as 100% and this value was used as the index of anti-activated blood coagulation factor X activity in plasma.
Target sequence in this assay (P00742 235-488 limits assumed): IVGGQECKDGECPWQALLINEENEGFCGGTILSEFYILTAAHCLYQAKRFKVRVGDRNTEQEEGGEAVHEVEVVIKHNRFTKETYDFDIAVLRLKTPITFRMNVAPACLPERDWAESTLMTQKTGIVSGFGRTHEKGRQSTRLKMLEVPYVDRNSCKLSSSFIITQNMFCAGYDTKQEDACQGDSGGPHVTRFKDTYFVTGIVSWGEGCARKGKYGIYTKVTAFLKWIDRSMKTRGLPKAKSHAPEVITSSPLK
Target sequence in this assay (P00742 41-179 limits assumed): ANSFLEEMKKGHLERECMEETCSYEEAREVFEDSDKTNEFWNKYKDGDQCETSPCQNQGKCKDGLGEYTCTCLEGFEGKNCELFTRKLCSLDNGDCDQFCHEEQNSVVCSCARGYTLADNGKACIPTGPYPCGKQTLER

[7] = target: T1, activated blood coagulation factor X; test: Inhibitory activity against activated blood coagulation factor X (statement, no method given); format: biochemical
Target sequence in this assay (P00742 235-488 limits assumed): as the sequence (P00742 235-488 limits assumed) above
Target sequence in this assay (P00742 41-179 partner limits assumed): as the sequence (P00742 41-179 limits assumed) above

## CCCCOC(=O)COc1cc(-c2ccccc2S(C)(=O)=O)ccc1CCNS(=O)(=O)c1cc(C(=N)NO)ccc1O.Cl [Example 1, n-butyl[4-[2-[2-hydroxy-5-(N-hydroxycarbamimidoyl)benzenesulfonylamino]ethyl]-2′-methanesulfonylbiphenyl-3-yloxy]acetate hydrochloride]
[1]
  Residual Rate (%): 99.0%
[1]; listed as crystalline form B
  Storage stability (in words): good storage stabilities
[2]
  Water solubility (in words): highly water-soluble
[2]; 37° C., highest concentration over time, read-out: Saturated water solubility
  solubility: 1600 µg/mL
[3]
  Ratio of PT: 1.50
[4]
  Oral bioavailability (in words): good oral bioavailability
[5]
  Stability of crystalline form on storage (in words): without changing its crystalline form
[6]
  inhibition at 6000 µg/mL (stock): 58.2%

## CCCCOC(=O)COc1cc(-c2ccccc2S(C)(=O)=O)ccc1CCNS(=O)(=O)c1cc(C(=N)NO)ccc1O.Cl [Reference Example 1, n-butyl[4-[2-[2-hydroxy-5-(N-hydroxycarbamimidoyl)benzenesulfonylamino]ethyl]-2′-methanesulfonylbiphenyl-3-yloxy]acetate hydrochloride]
[1]
  Residual Rate (%): 96.8%
[1]; listed as crystalline form A
  Storage stability (in words): unsatisfactory stabilities

## CCCCOC(=O)COc1cc(-c2ccccc2S(C)(=O)=O)ccc1CCNS(=O)(=O)c1cc(C(=N)NO)ccc1O.Cl.O [Reference Example 2, n-butyl[4-[2-[2-hydroxy-5-(N-hydroxy-carbamimidoyl)benzenesulfonylamino]ethyl]-2′-methanesulfonylbiphenyl-3-yloxy]acetate hydrochloride monohydrate]
[2]
  Water solubility (in words): poor water solubility
[2]; 37 °C
  solubility: 270 µg/mL

## CCCCOC(=O)COc1cc(-c2ccccc2S(C)(=O)=O)ccc1CCNS(=O)(=O)c1cc(C(=N)NO)ccc1O.Cl [formula (I), n-Butyl[4-[2-[2-hydroxy-5-(N-hydroxycarbamimidoyl)benzenesulfontylamino]ethyl]-2′-methanesulfonylbiphenyl-3-yloxy]acetate hydrochloride]
[7]
  Inhibitory activities against activated blood coagulation factor X (in words): excellent inhibitory activities
